Test results published in PMC3119665, “A New Drug Design Targeting the Adenosinergic System for Huntington's Disease” (PLoS ONE, 2011).

Assays:
Dopamine D5 = target: T1, Dopamine D5 (Homo sapiens, UniProt P21918); assay: Radioligand binding panel (Table S1); conditions: 10 μM T1-11, n 2
T1 construct: purchased MDS Pharma Services Taiwan

[1] = target: T2, Adenosine transporter (ENT1) (Cavia porcellus, UniProt H0V4R7); assay: Radioligand binding assay; parameters: species or system guinea pig
T2 construct: Membrane fractions collected from the cerebral cortex of Duncan Hartley derived guinea pigs; tissue MDS Pharma Services Taiwan; host or cells: guinea pig cerebral cortex
T2 sequence (H0V4R7 1-461): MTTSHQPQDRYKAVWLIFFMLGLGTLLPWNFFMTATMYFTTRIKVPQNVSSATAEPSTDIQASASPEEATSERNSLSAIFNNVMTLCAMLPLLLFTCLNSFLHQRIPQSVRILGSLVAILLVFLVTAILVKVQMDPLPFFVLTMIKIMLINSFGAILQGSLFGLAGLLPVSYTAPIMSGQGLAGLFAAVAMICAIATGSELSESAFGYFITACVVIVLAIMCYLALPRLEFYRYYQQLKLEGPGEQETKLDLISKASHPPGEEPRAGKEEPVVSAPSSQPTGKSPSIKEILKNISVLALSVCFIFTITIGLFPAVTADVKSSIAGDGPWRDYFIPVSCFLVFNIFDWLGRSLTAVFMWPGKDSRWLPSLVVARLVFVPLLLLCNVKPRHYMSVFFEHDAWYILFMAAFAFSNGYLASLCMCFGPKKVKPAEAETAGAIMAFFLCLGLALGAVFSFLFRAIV

Leukotriene, BLT (LTB4) = target: T3, Leukotriene, BLT (LTB4) (Homo sapiens, UniProt Q15722); assay: Radioligand binding panel (Table S1); conditions: 10 μM T1-11, n 2
T3 construct: purchased MDS Pharma Services Taiwan
T3 sequence (Q15722 whole entry): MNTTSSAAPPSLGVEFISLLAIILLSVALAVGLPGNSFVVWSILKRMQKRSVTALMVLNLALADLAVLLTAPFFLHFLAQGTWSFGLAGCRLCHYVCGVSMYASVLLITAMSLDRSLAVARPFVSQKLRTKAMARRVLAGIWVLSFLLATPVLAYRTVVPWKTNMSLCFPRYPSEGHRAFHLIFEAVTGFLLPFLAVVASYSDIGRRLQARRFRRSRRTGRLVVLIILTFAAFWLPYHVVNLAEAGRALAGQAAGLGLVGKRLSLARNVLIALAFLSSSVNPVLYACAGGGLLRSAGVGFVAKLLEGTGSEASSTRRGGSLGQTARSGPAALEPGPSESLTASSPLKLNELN

Sigma σ2 = target: T4, Sigma σ2 (Rattus norvegicus, UniProt Q5U3Y7); assay: Radioligand binding panel (Table S1); conditions: 10 μM T1-11, n 2
T4 construct: purchased MDS Pharma Services Taiwan
T4 sequence (Q5U3Y7 whole entry): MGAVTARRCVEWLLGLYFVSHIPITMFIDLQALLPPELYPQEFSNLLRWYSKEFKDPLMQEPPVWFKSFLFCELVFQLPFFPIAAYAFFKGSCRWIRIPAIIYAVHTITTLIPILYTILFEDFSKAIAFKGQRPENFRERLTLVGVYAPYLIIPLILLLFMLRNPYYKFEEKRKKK

Muscarinic M5 = target: T5, Muscarinic M5 (Homo sapiens, UniProt P08912); assay: Radioligand binding panel (Table S1); conditions: 10 μM T1-11, n 2
T5 construct: purchased MDS Pharma Services Taiwan

[2] = system: Serotonin (5-Hydroxytryptamine) 5-HT2, Non-Selective; assay: Radioligand binding panel (Table S1); parameters: species or system rat; conditions: 10 μM T1-11, n 2
Imidazoline I2, Central = assay: Radioligand binding panel (Table S1); parameters: species or system rat; conditions: 10 μM T1-11, n 2
Galanin GAL1 = target: T6, Galanin GAL1 (Homo sapiens, UniProt P47211); assay: Radioligand binding panel (Table S1); conditions: 10 μM T1-11, n 2
T6 construct: purchased MDS Pharma Services Taiwan
T6 sequence (P47211 whole entry): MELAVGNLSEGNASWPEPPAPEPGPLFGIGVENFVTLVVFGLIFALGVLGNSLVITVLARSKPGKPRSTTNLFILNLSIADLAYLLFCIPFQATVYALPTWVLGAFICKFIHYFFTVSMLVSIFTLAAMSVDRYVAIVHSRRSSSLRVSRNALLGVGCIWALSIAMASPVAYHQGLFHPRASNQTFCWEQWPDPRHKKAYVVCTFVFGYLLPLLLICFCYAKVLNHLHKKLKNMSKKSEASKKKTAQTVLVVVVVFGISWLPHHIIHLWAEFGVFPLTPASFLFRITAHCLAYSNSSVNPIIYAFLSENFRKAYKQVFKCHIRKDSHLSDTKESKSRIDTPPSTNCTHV

[3] = system: chymotrypsin-like activity of the proteasome; assay: Proteasome activity assay, striatal synaptosomes; format: in vivo; conditions: R6/2 mice, 12 weeks old, 0.05 mg/ml in drinking water
Method: The chymotrypsin-like activity of the proteasome was determined using a specific proteasome substrate [succinyl (suc)-Leu-Leu-Val-Tyr-7-amino-4-methyl coumarin (AMC)] (Sigma-Aldrich, St Louis, MO, USA) as described earlier. In brief, the synaptosome-enriched fraction (10 µg) were incubated with the substrate (40 µM) in 100 µl of proteasome assay buffer [0.05 M Tris-HCl (pH 8.0), 0.5 mM EDTA, 1 mM ATP, and 1 mM DTT] at 37°C for 60 min where the relationship between the incubation time and product formation remained linear. The fluorescence of the released AMC was detected using a Fluorescence Microplate Reader System (Device, Sunnyvale, CA, USA) at 380-nm excitation and 460-nm emission wavelengths.

A2A adenosine receptor = target: T7, A2A adenosine receptor (Homo sapiens, UniProt P29274); assay: Radioligand binding assay
T7 construct: host or cells: HEK293
T7 sequence (P29274 whole entry): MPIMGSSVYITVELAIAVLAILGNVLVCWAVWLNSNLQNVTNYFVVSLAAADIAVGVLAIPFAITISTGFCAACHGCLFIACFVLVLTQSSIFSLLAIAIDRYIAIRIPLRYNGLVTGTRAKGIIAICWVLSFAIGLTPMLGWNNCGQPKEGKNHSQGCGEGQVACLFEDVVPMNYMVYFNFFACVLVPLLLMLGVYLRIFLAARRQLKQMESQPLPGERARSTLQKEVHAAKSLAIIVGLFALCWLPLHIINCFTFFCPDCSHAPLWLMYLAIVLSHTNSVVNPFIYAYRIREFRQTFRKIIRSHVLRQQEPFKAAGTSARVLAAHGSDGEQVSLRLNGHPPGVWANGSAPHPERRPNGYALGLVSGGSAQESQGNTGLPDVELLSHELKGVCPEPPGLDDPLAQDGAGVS

[4] = target: T8, Serotonin (5-Hydroxytryptamine) 5-HT2A (Homo sapiens, UniProt P28223); assay: Radioligand binding panel (Table S1); conditions: 10 μM T1-11, n 2
T8 construct: purchased MDS Pharma Services Taiwan
T8 sequence (P28223 whole entry): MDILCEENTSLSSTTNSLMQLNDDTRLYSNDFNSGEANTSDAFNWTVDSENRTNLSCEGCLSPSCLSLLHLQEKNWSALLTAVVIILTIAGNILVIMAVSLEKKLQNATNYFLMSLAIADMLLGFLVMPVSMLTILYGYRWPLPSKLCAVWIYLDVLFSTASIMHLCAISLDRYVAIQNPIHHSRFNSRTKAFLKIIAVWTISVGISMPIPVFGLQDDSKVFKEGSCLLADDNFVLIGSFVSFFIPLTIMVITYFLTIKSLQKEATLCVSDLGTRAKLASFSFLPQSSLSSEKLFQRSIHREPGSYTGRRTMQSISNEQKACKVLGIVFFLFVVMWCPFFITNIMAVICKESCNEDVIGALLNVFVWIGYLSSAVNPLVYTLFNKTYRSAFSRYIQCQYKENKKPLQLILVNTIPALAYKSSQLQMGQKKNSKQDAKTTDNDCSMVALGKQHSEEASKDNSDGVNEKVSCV
Method: (§1) Radoligand binding assays were performed by MDS Pharma Services Taiwan (Taipei, Taiwan) using standard binding protocols. For the binding assay of the A2AR [67], membrane proteins collected from HEK293 cells overexpressing the human A2AR were incubated in reaction buffer [50 mM Tris-HCl (pH 7.4), 10 mM MgCl2, 1 mM EDTA, and 2 U/mL adenosine deaminase] containing ^3H-CGS21680 (50 nM) for 90 min at 25°C. Nonspecific binding was assessed in the presence of 50 µM adenosine- 5′-N-ethylcarboxamide. […] Nonspecific binding was assessed in the presence of 1 µM IB-MECA (Tocris Bioscience, Ellisville, MS, USA).

[5] = system: Muscarinic, Non-Selective, Central; assay: Radioligand binding panel (Table S1); parameters: species or system rat; conditions: 10 μM T1-11, n 2
Adrenomedullin AM2 = target: T9, Adrenomedullin AM2 (Homo sapiens, UniProt O60896+Q16602); assay: Radioligand binding panel (Table S1); conditions: 10 μM T1-11, n 2
T9 construct: purchased MDS Pharma Services Taiwan
T9 sequence (Q16602 23-461): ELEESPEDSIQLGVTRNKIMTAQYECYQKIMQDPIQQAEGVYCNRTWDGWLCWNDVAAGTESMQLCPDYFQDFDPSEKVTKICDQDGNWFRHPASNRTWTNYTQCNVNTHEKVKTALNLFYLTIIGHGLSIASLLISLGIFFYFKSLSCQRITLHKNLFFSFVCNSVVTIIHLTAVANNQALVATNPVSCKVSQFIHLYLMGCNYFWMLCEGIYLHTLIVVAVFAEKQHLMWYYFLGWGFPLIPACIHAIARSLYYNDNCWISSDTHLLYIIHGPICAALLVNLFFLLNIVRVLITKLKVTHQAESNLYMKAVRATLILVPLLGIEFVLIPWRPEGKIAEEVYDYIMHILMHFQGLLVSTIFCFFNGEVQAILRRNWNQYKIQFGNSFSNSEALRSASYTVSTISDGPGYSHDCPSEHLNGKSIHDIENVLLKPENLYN
T9 sequence (O60896 24-148 partner): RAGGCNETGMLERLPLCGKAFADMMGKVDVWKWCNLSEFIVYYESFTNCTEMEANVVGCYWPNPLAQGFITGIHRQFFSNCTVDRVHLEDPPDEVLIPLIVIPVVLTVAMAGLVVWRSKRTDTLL

Potassium Channel [KATP] = target: T10, Potassium Channel [KATP] (Cricetus cricetus, UniProt Q09427); assay: Radioligand binding panel (Table S1); parameters: species or system hamster; conditions: 10 μM T1-11, n 2
T10 construct: purchased MDS Pharma Services Taiwan
Method: as §1

Glucocorticoid = target: T11, Glucocorticoid (Homo sapiens, UniProt P04150); assay: Radioligand binding panel (Table S1); conditions: 10 μM T1-11, n 2
T11 construct: purchased MDS Pharma Services Taiwan
T11 sequence (P04150 whole entry): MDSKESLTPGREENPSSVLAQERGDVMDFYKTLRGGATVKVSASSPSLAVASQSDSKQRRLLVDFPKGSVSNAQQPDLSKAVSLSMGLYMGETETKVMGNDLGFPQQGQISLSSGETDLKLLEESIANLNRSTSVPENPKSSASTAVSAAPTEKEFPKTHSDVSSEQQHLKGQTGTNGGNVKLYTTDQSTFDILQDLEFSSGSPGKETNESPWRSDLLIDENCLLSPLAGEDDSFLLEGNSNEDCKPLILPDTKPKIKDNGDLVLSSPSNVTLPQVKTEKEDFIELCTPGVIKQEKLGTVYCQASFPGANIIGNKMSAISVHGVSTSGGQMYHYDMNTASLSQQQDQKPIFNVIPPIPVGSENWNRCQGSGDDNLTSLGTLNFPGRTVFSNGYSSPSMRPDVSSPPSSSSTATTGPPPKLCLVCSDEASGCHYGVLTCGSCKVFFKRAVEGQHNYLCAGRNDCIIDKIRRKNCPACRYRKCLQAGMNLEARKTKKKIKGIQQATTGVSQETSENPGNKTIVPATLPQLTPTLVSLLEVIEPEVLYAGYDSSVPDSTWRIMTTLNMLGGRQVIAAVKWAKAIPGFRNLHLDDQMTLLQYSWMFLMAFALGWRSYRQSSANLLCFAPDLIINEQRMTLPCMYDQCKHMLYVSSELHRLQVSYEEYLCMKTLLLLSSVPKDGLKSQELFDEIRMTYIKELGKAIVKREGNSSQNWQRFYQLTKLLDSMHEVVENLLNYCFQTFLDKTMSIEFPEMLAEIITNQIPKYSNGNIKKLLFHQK

Bradykinin B2 = target: T12, Bradykinin B2 (Homo sapiens, UniProt P30411); assay: Radioligand binding panel (Table S1); conditions: 10 μM T1-11, n 2
T12 construct: purchased MDS Pharma Services Taiwan

[6] = system: Atrial Natriuretic Factor (ANF); assay: Radioligand binding panel (Table S1); parameters: species or system guinea pig; conditions: 10 μM T1-11, n 2
Adrenergic α 2B = target: T13, Adrenergic α 2B (Homo sapiens, UniProt P18089); assay: Radioligand binding panel (Table S1); conditions: 10 μM T1-11, n 2
T13 construct: purchased MDS Pharma Services Taiwan

Neuropeptide Y Y1 = target: T14, Neuropeptide Y Y1 (Homo sapiens, UniProt P25929); assay: Radioligand binding panel (Table S1); conditions: 10 μM T1-11, n 2
T14 construct: purchased MDS Pharma Services Taiwan

GABAB1B = target: T15, GABAB1B (Homo sapiens, UniProt Q9UBS5); assay: Radioligand binding panel (Table S1); conditions: 10 μM T1-11, n 2
T15 construct: purchased MDS Pharma Services Taiwan

Prostanoid EP2 = target: T16, Prostanoid EP2 (Homo sapiens, UniProt P43116); assay: Radioligand binding panel (Table S1); conditions: 10 μM T1-11, n 2
T16 construct: purchased MDS Pharma Services Taiwan

Chemokine CX3CR1 = target: T17, Chemokine CX3CR1 (Homo sapiens, UniProt P49238); assay: Radioligand binding panel (Table S1); conditions: 10 μM T1-11, n 2
T17 construct: purchased MDS Pharma Services Taiwan
T17 sequence (P49238 whole entry): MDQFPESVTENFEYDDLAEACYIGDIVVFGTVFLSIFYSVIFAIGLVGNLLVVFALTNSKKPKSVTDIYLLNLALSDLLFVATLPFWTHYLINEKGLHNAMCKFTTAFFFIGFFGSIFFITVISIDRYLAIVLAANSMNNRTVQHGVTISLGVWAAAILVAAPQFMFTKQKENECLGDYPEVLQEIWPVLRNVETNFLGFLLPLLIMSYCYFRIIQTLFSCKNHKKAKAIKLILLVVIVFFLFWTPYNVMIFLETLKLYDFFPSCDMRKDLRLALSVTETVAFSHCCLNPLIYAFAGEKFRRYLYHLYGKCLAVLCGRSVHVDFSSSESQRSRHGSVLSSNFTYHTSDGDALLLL

Lipoxygenase 12-LO = target: T18, Lipoxygenase 12-LO (Homo sapiens, UniProt P18054); assay: Radioligand binding panel (Table S1); conditions: 10 μM T1-11, n 2
T18 construct: purchased MDS Pharma Services Taiwan

Dopamine D1 = target: T19, Dopamine D1 (Homo sapiens, UniProt P21728); assay: Radioligand binding panel (Table S1); conditions: 10 μM T1-11, n 2
T19 construct: purchased MDS Pharma Services Taiwan
T19 sequence (P21728 whole entry): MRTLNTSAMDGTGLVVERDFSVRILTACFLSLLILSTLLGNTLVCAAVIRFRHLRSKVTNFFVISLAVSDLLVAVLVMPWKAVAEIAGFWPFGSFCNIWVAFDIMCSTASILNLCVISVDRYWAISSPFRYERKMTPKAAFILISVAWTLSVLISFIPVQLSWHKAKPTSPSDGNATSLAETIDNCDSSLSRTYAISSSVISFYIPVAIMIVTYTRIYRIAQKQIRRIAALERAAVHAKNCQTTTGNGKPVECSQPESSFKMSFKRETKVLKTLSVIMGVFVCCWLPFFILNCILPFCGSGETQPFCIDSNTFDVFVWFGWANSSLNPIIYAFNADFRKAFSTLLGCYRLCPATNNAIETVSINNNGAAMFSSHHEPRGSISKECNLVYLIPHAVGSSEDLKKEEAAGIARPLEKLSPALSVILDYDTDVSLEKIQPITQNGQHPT

[7] = target: T20, Serotonin (5-Hydroxytryptamine) 5-HT7 (Homo sapiens, UniProt P34969); assay: Radioligand binding panel (Table S1); conditions: 10 μM T1-11, n 2
T20 construct: purchased MDS Pharma Services Taiwan
T20 sequence (P34969 whole entry): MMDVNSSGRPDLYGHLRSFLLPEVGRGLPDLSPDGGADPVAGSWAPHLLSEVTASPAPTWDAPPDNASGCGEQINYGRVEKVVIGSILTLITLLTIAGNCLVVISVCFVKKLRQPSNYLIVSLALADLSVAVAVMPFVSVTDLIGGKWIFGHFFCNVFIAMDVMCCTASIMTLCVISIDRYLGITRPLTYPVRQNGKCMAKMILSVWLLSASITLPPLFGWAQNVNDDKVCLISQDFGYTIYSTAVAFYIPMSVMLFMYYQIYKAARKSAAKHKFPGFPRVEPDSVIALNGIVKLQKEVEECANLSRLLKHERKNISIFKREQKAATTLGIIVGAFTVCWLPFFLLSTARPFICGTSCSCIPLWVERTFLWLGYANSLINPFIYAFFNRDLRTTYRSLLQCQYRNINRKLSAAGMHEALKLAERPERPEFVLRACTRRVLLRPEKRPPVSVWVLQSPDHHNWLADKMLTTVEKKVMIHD

Bombesin BB1 = target: T21, Bombesin BB1 (Homo sapiens, UniProt P28336); assay: Radioligand binding panel (Table S1); conditions: 10 μM T1-11, n 2
T21 construct: purchased MDS Pharma Services Taiwan

Muscarinic M4 = target: T22, Muscarinic M4 (Homo sapiens, UniProt P08173); assay: Radioligand binding panel (Table S1); conditions: 10 μM T1-11, n 2
T22 construct: purchased MDS Pharma Services Taiwan
T22 sequence (P08173 whole entry): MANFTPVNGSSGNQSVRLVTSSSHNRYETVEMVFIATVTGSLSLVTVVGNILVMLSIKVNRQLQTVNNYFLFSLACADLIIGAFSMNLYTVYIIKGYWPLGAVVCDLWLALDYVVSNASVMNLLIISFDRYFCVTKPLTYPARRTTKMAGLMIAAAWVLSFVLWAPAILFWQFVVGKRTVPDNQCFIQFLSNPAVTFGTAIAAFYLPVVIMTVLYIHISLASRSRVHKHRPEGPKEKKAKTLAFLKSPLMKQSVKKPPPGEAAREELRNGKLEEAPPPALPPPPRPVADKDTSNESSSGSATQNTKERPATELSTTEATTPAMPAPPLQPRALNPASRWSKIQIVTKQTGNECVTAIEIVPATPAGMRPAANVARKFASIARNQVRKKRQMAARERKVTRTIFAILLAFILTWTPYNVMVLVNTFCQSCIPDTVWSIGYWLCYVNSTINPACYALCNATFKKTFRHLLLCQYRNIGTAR

[8] = guinea pig cerebral cortex membranes, 3H-NBTI 0.5 nM
[9] = HEK293 membranes, 3H-CGS21680 50 nM

OC[C@H]1O[C@@H](n2cnc3c(NCc4ccc(O)cc4)ncnc32)[C@H](O)[C@@H]1O [T1-11, N ^6-(4-hydroxybenzyl)adenine riboside]
inhibition at 10 µM (Dopamine D5): 2%
inhibition at 10 µM ([1]; 10 μM T1-11, n 2): 84%
IC50 [1, 8]: 1570 nM
Ki [1, 8]: 540 nM
inhibition at 10 µM (Leukotriene, BLT (LTB4)): -6%
inhibition at 10 µM (Sigma σ2): -3%
inhibition at 10 µM (Muscarinic M5): 0%
% Inhibition [2]: 15%
% Inhibition (Imidazoline I2, Central): 3%
inhibition at 10 µM (Galanin GAL1): 0%
Chymotrypsin-like activity in striatal synaptosome fractions [3]: significantly enhanced chymotrypsin-like activity in the HD striatum
inhibition at 10 µM (A2A adenosine receptor; 10 μM T1-11, n 2): 58%
IC50 (A2A adenosine receptor; [9]): 4660 nM
Ki (A2A adenosine receptor; [9]): 2620 nM
inhibition at 10 µM [4]: 19%
% Inhibition [5]: 12%
inhibition at 10 µM (Adrenomedullin AM2): 9%
inhibition at 10 µM (Potassium Channel [KATP]): 6%
inhibition at 10 µM (Glucocorticoid): -10%
inhibition at 10 µM (Bradykinin B2): -9%
% Inhibition [6]: 5%
inhibition at 10 µM (Adrenergic α 2B): 2%
inhibition at 10 µM (Neuropeptide Y Y1): 6%
inhibition at 10 µM (GABAB1B): -5%
inhibition at 10 µM (Prostanoid EP2): 10%
inhibition at 10 µM (Chemokine CX3CR1): -1%
inhibition at 10 µM (Lipoxygenase 12-LO): 9%
inhibition at 10 µM (Dopamine D1): -13%
inhibition at 10 µM [7]: 2%
inhibition at 10 µM (Bombesin BB1): -5%
inhibition at 10 µM (Muscarinic M4): 9%
